In article doi:10.1101/2022.09.19.508609v1 (biorxiv, 2022):

How the values were obtained:
AgamOr53 + AgamOrco = molecular target: T1, AgamOr53 + AgamOrco (Anopheles gambiae, UniProt A0ABK8FS74); assay: two-electrode voltage clamp, Xenopus oocytes; format: cell-based
T1 sequence (A0ABK8FS74 1-384): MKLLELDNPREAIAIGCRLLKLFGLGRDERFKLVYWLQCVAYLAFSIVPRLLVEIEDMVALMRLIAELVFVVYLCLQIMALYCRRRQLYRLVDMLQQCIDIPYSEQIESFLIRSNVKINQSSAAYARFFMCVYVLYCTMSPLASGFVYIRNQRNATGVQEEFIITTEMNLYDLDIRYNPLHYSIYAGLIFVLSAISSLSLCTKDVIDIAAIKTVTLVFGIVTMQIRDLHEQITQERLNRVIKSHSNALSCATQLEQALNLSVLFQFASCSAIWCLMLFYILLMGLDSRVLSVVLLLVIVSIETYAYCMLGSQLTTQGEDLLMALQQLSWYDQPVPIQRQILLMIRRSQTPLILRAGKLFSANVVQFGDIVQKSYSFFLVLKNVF
T1 sequence (Q7QCC7 1-478 partner): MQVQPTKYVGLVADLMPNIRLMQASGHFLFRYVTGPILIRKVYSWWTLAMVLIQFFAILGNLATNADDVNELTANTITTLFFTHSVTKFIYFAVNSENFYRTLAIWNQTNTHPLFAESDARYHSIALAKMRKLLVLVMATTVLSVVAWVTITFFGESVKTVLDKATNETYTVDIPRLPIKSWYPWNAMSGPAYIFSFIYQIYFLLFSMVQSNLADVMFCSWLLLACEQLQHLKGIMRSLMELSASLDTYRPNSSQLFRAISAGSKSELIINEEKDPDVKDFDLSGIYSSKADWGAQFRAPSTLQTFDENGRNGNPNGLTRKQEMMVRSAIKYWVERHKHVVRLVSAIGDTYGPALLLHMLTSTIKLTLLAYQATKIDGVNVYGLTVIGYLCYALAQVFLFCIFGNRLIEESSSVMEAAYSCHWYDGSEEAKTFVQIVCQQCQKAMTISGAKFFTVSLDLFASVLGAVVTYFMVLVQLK

AgamOr29 + AgamOrco = molecular target: T2, AgamOr29 + AgamOrco (Anopheles gambiae, UniProt A0A1S4H074); assay: two-electrode voltage clamp, Xenopus oocytes; format: cell-based
T2 sequence (A0A1S4H074 1-384): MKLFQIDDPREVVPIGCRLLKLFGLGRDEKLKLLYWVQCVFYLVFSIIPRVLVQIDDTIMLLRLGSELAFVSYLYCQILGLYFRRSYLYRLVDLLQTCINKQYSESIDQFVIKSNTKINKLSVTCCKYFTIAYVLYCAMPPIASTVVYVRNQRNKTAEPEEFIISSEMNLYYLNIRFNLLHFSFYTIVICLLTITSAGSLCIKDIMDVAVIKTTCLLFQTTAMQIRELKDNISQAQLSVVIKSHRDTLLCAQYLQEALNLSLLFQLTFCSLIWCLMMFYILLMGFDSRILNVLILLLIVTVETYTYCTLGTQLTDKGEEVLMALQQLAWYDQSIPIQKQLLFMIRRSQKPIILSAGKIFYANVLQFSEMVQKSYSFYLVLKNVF
T2 sequence (Q7QCC7 1-478 partner): T1 sequence (Q7QCC7 1-478 partner)

EC50 (AgamOr53 + AgamOrco) | EC50 (AgamOr29 + AgamOrco) | Compound
14.9 µM | 14.7 µM | C=C[C@](C)(O)CCC=C(C)C [(R)-(–)-linalool]
19.1 µM | 7.1 µM | C=C[C@@](C)(O)CCC=C(C)C [(S)-(+)-linalool]
